The values below come from publication PMC10100467, “The Function of Two Radical‐SAM Enzymes, HcgA and HcgG, in the Biosynthesis of the [Fe]‐Hydrogenase Cofactor” (Angewandte Chemie (International Ed. in English), 2022).

For this assay, the target named is T1, HcgA (Methanococcus maripaludis, UniProt Q6M0Z2).
T1 construct: His-tagged, produced in Escherichia coli with helper plasmid pRKISC; [4Fe-4S] radical SAM enzyme, CX5CX2C motif
T1 sequence (Q6M0Z2 1-341): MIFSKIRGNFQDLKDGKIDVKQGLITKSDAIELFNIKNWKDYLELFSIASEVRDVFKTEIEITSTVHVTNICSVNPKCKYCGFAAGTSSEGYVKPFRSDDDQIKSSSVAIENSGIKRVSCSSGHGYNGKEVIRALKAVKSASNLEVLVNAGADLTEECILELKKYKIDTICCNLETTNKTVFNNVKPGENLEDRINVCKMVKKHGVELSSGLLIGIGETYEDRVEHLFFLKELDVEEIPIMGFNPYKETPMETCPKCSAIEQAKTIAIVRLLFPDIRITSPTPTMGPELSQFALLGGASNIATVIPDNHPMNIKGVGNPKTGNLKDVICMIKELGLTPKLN
Put plainly: radical SAM activity, HPLC-MS of product […]. The class given is biochemical. The settings on record: 1 mM SAH, without added SAM; 3 kDa filtrate of the delta-hcgA cell extract as substrate.

As to `Nc1ncnc2c1ncn2[C@@H]1O[C@H](CSCC[C@H](N)C(=O)O)[C@@H](O)[C@H]1O` [S-adenosyl homocysteine], the “relative activity (%)” value is “The HcgA activity was inhibited by a radical SAM enzyme inhibitor, S‐adenosyl homocysteine”.
